For one data set, the system named is mice, forced swimming. In words: "Behavioral despair" test according to Porsolt. It is filed as in vivo. Particulars: 50 mg/kg orally. The method, then:
The “behavioral despair” test according to Porsolt [R. D. Porsolt, A. Bertin and M. Jalfre.//in mice: A primary Screening Test for Antidepressants. Arch. Int. Pharmacodyn., 1977, 229, p. 327-336] is a predictive test for drugs with antidepressant action.
Stress state in mice (weighing 27-30 grams) is induced by forced swimming. Animals are placed into a cylinder (height 25 cm, diameter 10 cm) filled to ⅓ with water at temperature 21-23° C. The animals cannot escape from the cylinder by themselves. Following a short time of activity the animals develop a so called “behavioral depression” characterized by hovering of animals, immobilization duration of which can be fixed. The experiment is carried out in two days. One a first day, animals are placed into the cylinder for 15 minutes (pre-test). After removal from water, the animals are dried and preparations under testing are administered. At 24 hours, the preparations are administered again and one hour later the animals are placed into the cylinder for 6 minutes. During first two minutes the animals are actively swimming; during the subsequent four minutes, behavioral depression develops manifested by immobilization (hovering) which is fixed for 4 minutes and is measure in seconds. Compound IX and the reference antidepressant drug Fluoxetin were administered orally at a dose 50 mg/kg.

A further data set concerns HL-60 cells. The settings on record: Chen et al., Chinese Pharmaceutical Journal 2001; cited from earlier work.
Data set [1] has as its system "acetic contortions" in mice. Put plainly: Effect on analgetic action of Tramal and Analgin on the model "acetic contortions". Type of data set: in vivo, white mongrel mice. The method, then:
The tests were conducted on males of white mongrel mice weighing 22-24 grams. The specific pain response (“contortions”) were elicited by intraperitoneal administration to mice of 0.75% acetic acid solution. The following signs were taken into consideration: the number of seizure contractions of abdominal muscles accompanied by stretching the hind limbs and sagging the back. Analgetic effect was assessed by decrease in the number of contortions in animals in percent to the control for 15 minutes post administration of acetic acid. The technique of the tests is disclosed in Koster R., Anderson M., de Beer B.//Fed. Proc. 1959. V. 18. P. 412. Compounds under testing were administered intraperitoneally (using a probe) at a dose 10 μg/kg 60 minutes prior to injection of the acid. Diclofenac (10 mg/kg) was used as a reference drug. Analgetic effect was calculated according to the formula: […]
The studies were carried out in accordance with the technique presented in Example 18.

Another data set concerns "hot plate" test in mice. In words: Analgetic activity on the model "hot plate". It is filed as in vivo, white mongrel mice. Particulars: Analgin 150 mg/kg. The method, then: The tests were conducted on males of white mongrel mice weighing 22-24 grams. The animals were individually placed on a hot plate (manufactured by the firm “Ugo Basile”), a temperature of which remained constant and was equal to 55° C. The following first manifestations of pain reaction were recorded: licking paws, jumping up prior to administration of a substance (background parameters) and 0.5, 1, 2, 3 and 4 hours post administration of a substance. Substances were administered […] (using a probe). A weighed amount of a substance was thoroughly mixed in 0.1 ml Tween 80 until a solution was obtained, then normal saline was added up to a volume of 0.5 ml. Average latent time of nociception threshold (NT) was calculated in every group. The results obtained were expressed in percent of the background values. Analgetic effect (in %) was calculated according to the formula: A−100%=X, wherein A is a background parameter; X is analgetic effect (in %)
A is (time 0.5 to 4 hours post administration×100%): background time
As reference drugs, Analgin (150 mg/kg), Paracetamol (200 mg/kg), Ketorol (10 mg/kg), were used.

Another data set has as its system gastric mucosa of rats. In words: Ulcerogenic effect on gastric mucosa. It is filed as in vivo, outbreed rats. Particulars: 30 mg/kg once intragastrally, at 24 hours, M ± m. The method, then:
The tests were carried out on females of outbreed rats weighing 300-320 grams. The compounds tested were administered once intragastrally at a dose 30 mg/kg to rats deprived of feed for 24 hours prior to the test. Animals in the control group were administered distilled water in the same volume. At 24 hours the animals were sacrificed and stomachs were extracted. An empty stomach was filled with 2% formalin solution and it was placed into a beaker with formalin. 30 minutes later, the stomach was opened along the great curvature, expanded on a slide, fixed and washed with distilled water. Using the magnifying glass MBS-9 (8-fold magnification) length and width of gastric mucosa defects was measured and area in mm^2 was calculated (1 division of the magnifying glass ruler=0.1 mm). Ulcerogenic effect of a substance was assessed by ulcerous lesion area of gastric mucosa according to the technique presented in Rukovodstvo po experimental'nomu (doklinicheskomu) izucheniju novykh pharmacologicheskikh veshchestv (the Guide on Experimental (pre-clinical) Study of Novel Pharmacological Substances)./Moscow. “Remedium” publishers. 2000, 398 pages.

The subject of data set [2] is carrageenan edema of rat paw. In words: Carrageenan edema of rat paw. The settings on record: rats; 10% ointment; 4 hours post carrageenan. Type of data set: in vivo, outbreed white rats. As for the experimental part:
The tests were conducted on males of outbreed white rats weighing 250-270 grams. The model of carrageenan edema was used which model is described in Winter et al. In: DeRosa M., Giroud J. P. Willoughby D. A. Studies of the mediators of acute inflammatory response induced in rats in different sites by carrageenan and turpentine.//J. Pharmacol. 1971. V. 104. P. 15-29.
0.1 ml 1% carrageenan solution (SERVA) was subplantarly injected into a right paw of rats. The animals were placed into individual chambers. […] Paw volume was measured using a pletismometer (Ugo Besile) at 4 hours post carrageenan administration. Therapeutic effect of the ointment was assessed by the inhibition degree of inflammatory reaction as compared to an intact left paw of the given animal and to a paw reaction of a control (untreated) group of rats. Inhibition of inflammatory reaction expressed in percent was calculated according to the formula: […]
On the technique in general: Carrageenan injected into the paw causes an acute inflammation.

Regarding `CNCCC(Oc1ccc(C(F)(F)F)cc1)c1ccccc1` (centres unmarked) [Fluoxetin, reference compound], in the data set on mice, forced swimming, the “% change from the control” value is listed as −33%.

For `O=C(Cc1ccccc1)N[C@@H](Cc1ccccc1)C(=O)O` [XIX, phenylacetylphenylalanine], the cellular differentiation entry in the data set on HL-60 cells is recorded as “inductor of cellular differentiation”.

Turning to `COc1cccc(C2(O)CCCCC2CN(C)C)c1` (centres unmarked) [Tramal, reference compound], the “Analgetic effect, %” value in data set [1] (IX 10 mg/kg, Tramal 10 mg/kg, alone or combined) is 53%.

Regarding `Cc1c(N(C)CS(=O)(=O)[O-])c(=O)n(-c2ccccc2)n1C.[Na+]` [Analgin, reference compound], the “Analgetic effect, %” value in data set [1] (Analgin 50 mg/kg alone) worked out at 37.5%. In addition, the “Number of contortions for 15 minutes, M ± m” value in data set [1] (Analgin 50 mg/kg alone) was 20.7 ± 2.3. In addition, the “Analgesia (%)” value in the data set on "hot plate" test in mice (30 minutes) was 53.4%; in the data set with "hot plate" test in mice (60 minutes), 50.3%; with "hot plate" test in mice (120 minutes), 28.9%; in the data set with "hot plate" test in mice (240 minutes), 10.3%. In addition, the “Latent time of NT (%)” value is given as 153.4% with "hot plate" test in mice (30 minutes), 150.3% in the data set with "hot plate" test in mice (60 minutes), 128.9% in the data set with "hot plate" test in mice (120 minutes) and 110.3% in the data set on "hot plate" test in mice (240 minutes). Further, the “latent time of nociception threshold, M ± m” value turned out to be 7.44 ± 1.22 s in the data set on "hot plate" test in mice (30 minutes), 7.29 ± 0.71 s with "hot plate" test in mice (60 minutes), 6.25 ± 0.75 s in the data set on "hot plate" test in mice (120 minutes) and 5.35 ± 0.38 s in the data set with "hot plate" test in mice (240 minutes).

As for `COc1ccc2c(c1)c(CC(=O)O)c(C)n2C(=O)c1ccc(Cl)cc1` [Indomethacin, reference compound], the “Area of ulcerous lesion” value in the data set with gastric mucosa of rats was determined as 7.3 ± 1.75 mm^2. Besides, in data set [2], the “Edema inhibition (%)” value is 50.0% and the “Paw volume gain (%)” value was determined as 45.0%.
